The values that follow are results of earlier work, collected in PMC7926471 (Viruses, 2021).

This data set concerns SARS-CoV-2. The conditions noted are these: pre and post treatment of Vero E6 cultures; cited from earlier work.

As usually defined, the EC50 is the concentration that produces a half-maximal response. In general, EC90 refers to the concentration at which the effect reaches the 90% level. Regarding `CCN(CC)CCCC(C)Nc1ccnc2cc(Cl)ccc12` (centres unmarked) [Chloroquine, chloroquine diphosphate], the EC50 is 1.13 µM and the EC90 is 6.9 µM.
